Among the data in US6911469B2, “Sulfonamide compounds and pharmaceutical use thereof” (Fujisawa Pharmaceutical Co., Ltd., priority 1997, dated 2005) are melting point values, retold here.

SMILES strings stand for the structures.

`CCCCS(=O)(=O)NC(=O)c1ccc2c(=O)n(Cc3ccc(Cl)cc3Cl)c(=O)n(C)c2c1` [Example 43, 7-(1-n-butanesulfonyl-carbamoyl)-3-(2,4-dichlorobenzyl)-1-methyl-2,4(1H,3H)-quinazolinedione]: the melting point was 212 to 214 °C. Then `CCCCS(=O)(=O)NC(=O)c1ccc2c(=O)n(Cc3ccc(Cl)cc3Cl)cnc2c1` [Example 44, 7-(1-n-butanesulfonyl-carbamoyl)-3-(2,4-dichlorobenzyl)-4(3H)-quinazolinone], with 245 to 247 °C; and `CCCCS(=O)(=O)NC(=O)c1ccc2c(=O)n(C)c(Cc3ccc(Cl)cc3Cl)nc2c1` [Example 45, 7-(1-n-butanesulfonyl-carbamoyl)-2-(2,4-dichlorobenzyl)-3-methyl-4(3H)-quinazolinone], with 244 to 246 °C; and `CCCCCS(=O)(=O)NC(=O)c1ccc2c(=O)nc(C)n(Cc3ccc(Cl)cc3Cl)c2c1` [Example 47-1, 1-(2,4-dichlorobenzyl)-2-methyl-7-(1-n-pentanesulfonylcarbamoyl)-4(1H)-quinazolinone], with 168 to 170 °C. With `Cc1nc(=O)c2ccc(C(=O)NS(=O)(=O)c3ccccc3)cc2n1Cc1ccc(Cl)cc1Cl` [Example 47-2, 7-(benzenesulfonylcarbamoyl)-1-(2,4-dichlorobenzyl)-2-methyl-4(1H)-quinazolinone], the melting point was 214 to 216 °C. Regarding `CCCCS(=O)(=O)NC(=O)c1ccc2nc(C)c(=O)n(Cc3ccc(Cl)cc3Cl)c2c1` [Example 49, 7-(1-n-butanesulfonyl-carbamoyl)-1-(2,4-dichlorobenzyl)-3-methyl-2(1H)-quinoxalinone], the melting point lay in the range of 223 to 225 °C. With `CCCCS(=O)(=O)NC(=O)c1ccc2c(c1)n(Cc1ccc(Cl)cc1Cl)c(=O)c(=O)n2C` [Example 50, 7-(1-n-butanesulfonyl-carbamoyl)-1-(2,4-dichlorobenzyl)-4-methyl-2,3-(1H, 4H)-quinoxalinedione], the melting point fell in the range of 243 to 246 °C. As for `Cc1nc2ccc(C(=O)NS(=O)(=O)c3ccccc3)cn2c1Cc1ccc(Cl)cc1Cl` [Example 56, 6-(benzenesulfonylcarbamoyl)-3-(2,4-dichlorobenzyl)-2-methylimidazo[1,2-a]pyridine], the melting point is 308 to 310 °C. Then `Cc1nc2ccc(C(=O)NS(=O)(=O)/C=C/c3ccccc3)nc2n1Cc1ccc(Cl)cc1Cl` [Example 65-3, (E)-3-(2,4-dichlorobenzyl)-2-methyl-5-[(2-phenylethenyl)sulfonylcarbamoyl]-3H-imidazo[4,5-b]pyridine], with 192 to 194 °C; and `Cc1nc2ccc(C(=O)NS(=O)(=O)c3ccc(Cl)s3)nc2n1Cc1ccc(Cl)cc1Cl` [Example 65-4, 5-((5-chlorothiophene-2-yl)sulfonylcarbamoyl)-3-(2,4-dichlorobenzyl)-2-methyl-3H-imidazo[4,5-b]pyridine], with 206 to 207 °C; and `Cc1nc2ccc(C(=O)NS(=O)(=O)c3ccc(Br)s3)nc2n1Cc1ccc(Cl)cc1Cl` [Example 65-5, 5-((5-bromothiophen-2-yl)sulfonylcarbamoyl)-3-(2,4-dichlorobenzyl)-2-methyl-3H-imidazo[4,5-b]pyridine], with 168 to 169 °C. For the molecule `Cc1nc2ccc(C(=O)NS(=O)(=O)/C=C/c3ccccc3)nc2n1Cc1ccc(Br)cc1Cl` [Example 66-1, (E)-3-(4-bromo-2-chlorobenzyl)-2-methyl-5-[(2-phenylethenyl)sulfonylcarbamoyl]-3H-imidazo[4,5-b]pyridine], the melting point is 204 to 205 °C. The molecule `Cc1nc2ccc(C(=O)NS(=O)(=O)/C=C/c3ccccc3)nc2n1Cc1ccc(-c2ccccc2)cc1Cl` [Example 67-2, (E)-3-(2-chloro-4-phenylbenzyl)-2-methyl-5-[(2-phenylethenyl)sulfonylcarbamoyl]-3H-imidazo[4,5-b]pyridine] yielded a melting point of 216 to 218 °C. For the molecule `Cc1nc2ccc(C(=O)NS(=O)(=O)c3ccc(Cl)s3)nc2n1Cc1ccc(-c2ccccc2)cc1Cl` [Example 67-3, 3-(2-chloro-4-phenylbenzyl)-5-[(5-chlorothiophene-2-yl)sulfonylcarbamoyl]-2-methyl-3H-imidazo[4,5-b]pyridine], the melting point lay in the range of 210 to 212 °C.

Molecule `Cc1nc2ccc(C(=O)NS(=O)(=O)c3ccc(Br)s3)nc2n1Cc1ccc(-c2ccccc2)cc1Cl` [Example 67-5, 5-[(5-bromothiophen-2-yl)sulfonylcarbamoyl]-3-(2-chloro-4-phenylbenzyl)-2-methyl-3H-imidazo[4,5-b]pyridine] gave a melting point of 205 to 207 °C. Molecule `Cc1nc2ccc(C(=O)NS(=O)(=O)c3ccccc3)nc2n1Cc1ccc(-c2cccs2)cc1Cl` [Example 68, 5-(benzenesulfonylcarbamoyl)-3-[2-chloro-4-(thiophen-2-yl)benzyl]-2-methyl-3H-imidazo[4,5-b]pyridine] showed a melting point of 225 to 226 °C. With `Cc1nc2ccc(C(=O)NS(=O)(=O)c3ccccc3)nc2n1Cc1ccc(-c2ccc(Cl)s2)cc1Cl` [Example 69, 5-(benzenesulfonylcarbamoyl)-3-[2-chloro-4-(5-chlorothiophene-2-yl)benzyl]-2-methyl-3H-imidazo[4,5-b]pyridine], the melting point lay in the range of 215 to 217 °C. Molecule `CCCCCS(=O)(=O)NC(=O)c1ccc2nc(C)n(Cc3ccc(CC)cc3Cl)c2n1` [Example 70-1, 3-(2-chloro-4-ethylbenzyl)-2-methyl-5-(1-pentanesulfonylcarbamoyl)-3H-imidazo[4,5-b]pyridine] registered a melting point of 138 to 139 °C. `CCc1ccc(Cn2c(C)nc3ccc(C(=O)NS(=O)(=O)c4ccccc4)nc32)c(Cl)c1` [Example 70-2, 5-(benzenesulfonylcarbamoyl)-3-(2-chloro-4-ethylbenzyl)-2-methyl-3H-imidazo[4,5-b]pyridine] had a melting point of 167 to 168 °C. `CCc1ccc(Cn2c(C)nc3ccc(C(=O)NS(=O)(=O)/C=C/c4ccccc4)nc32)c(Cl)c1` [Example 70-4, (E)-3-(2-chloro-4-ethylbenzyl)-2-methyl-5-[(2-phenylethenyl)sulfonylcarbamoyl]-3H-imidazo[4,5-b]pyridine]: the melting point lay within 184 to 185 °C.

`C=Cc1ccc(Cn2c(C)nc3ccc(C(=O)NS(=O)(=O)c4ccccc4)nc32)c(Cl)c1` [Example 71, 5-(benzenesulfonylcarbamoyl)-3-(2-chloro-4-vinylbenzyl)-2-methyl-3H-imidazo[4,5-b]pyridine] registered a melting point of 174 to 175 °C. `Cc1ccc(Cn2c(C)nc3ccc(C(=O)NS(=O)(=O)c4ccccc4)nc32)c(Cl)c1` [Example 72, 5-(benzenesulfonylcarbamoyl)-3-(2-chloro-4-methylbenzyl)-2-methyl-3H-imidazo[4,5-b]pyridine]: the melting point lay within 213 to 215 °C. `CCCCCc1ccc(Cn2c(C)nc3ccc(C(=O)NS(=O)(=O)c4ccccc4)nc32)c(Cl)c1` [Example 73, 5-(benzenesulfonylcarbamoyl)-3-(2-chloro-4-(n-pentyl)benzyl)-2-methyl-3H-imidazo[4,5-b]pyridine] yielded a melting point of 174 to 175 °C.

Consider `Cc1nc2ccc(C(=O)NS(=O)(=O)c3ccccc3)nc2n1Cc1ccc(CC(C)C)cc1Cl` [Example 74, 5-(benzenesulfonylcarbamoyl)-3-(2-chloro-4-isobutylbenzyl)-2-methyl-3H-imidazo[4,5-b]pyridine], for which the melting point fell in the range of 183 to 184 °C. The molecule `Cc1nc2ccc(C(=O)NS(=O)(=O)c3ccccc3)nc2n1Cc1ccc(CC2CCCCC2)cc1Cl` [Example 75, 5-(benzenesulfonylcarbamoyl)-3-(2-chloro-4-(cyclohexylmethyl)benzyl)-2-methyl-3H-imidazo[4,5-b]pyridine] had a melting point of 170 to 171 °C.

Molecule `Cc1nc2ccc(C(=O)NS(=O)(=O)c3ccccc3)nc2n1Cc1ccc(/C=C/c2ccccc2)cc1Cl` [Example 76, (E)-5-(benzenesulfonylcarbamoyl)-3-(2-chloro-4-(2-phenylethenyl)benzyl)-2-methyl-3H-imidazo[4,5-b]pyridine] displayed a melting point of 262 to 263 °C. Molecule `Cc1nc2ccc(C(=O)NS(=O)(=O)c3ccccc3)nc2n1Cc1ccc(OCc2ccccc2)cc1Cl` [Example 77, 5-(benzenesulfonylcarbamoyl)-3-(4-benzyloxy-2-chlorobenzyl)-2-methyl-3H-imidazo[4,5-b]pyridine] yielded a melting point of 190 to 191 °C. To `COc1ccc(Cn2c(C)nc3ccc(C(=O)NS(=O)(=O)c4ccccc4)nc32)c(Cl)c1` [Example 78, 5-(benzenesulfonylcarbamoyl)-3-(2-chloro-4-methoxybenzyl)-2-methyl-3H-imidazo[4,5-b]pyridine] belongs 151 to 152 °C; to `Cc1nc2ccc(C(=O)NS(=O)(=O)c3ccccc3)nc2n1Cc1ccc(OC(C)C)cc1Cl` [Example 79, 5-(benzenesulfonylcarbamoyl)-3-(2-chloro-4-isopropoxybenzyl)-2-methyl-3H-imidazo[4,5-b]pyridine], 177 to 179 °C.

`CCCCOc1ccc(Cn2c(C)nc3ccc(C(=O)NS(=O)(=O)c4ccccc4)nc32)c(Cl)c1` [Example 80, 5-(benzenesulfonylcarbamoyl)-3-(4-(n-butoxy)-2-chlorobenzyl)-2-methyl-3H-imidazo[4,5-b]pyridine] gave a melting point of 181 to 182 °C. In the case of `Cc1nc2ccc(C(=O)NS(=O)(=O)c3ccccc3)nc2n1Cc1ccc(OCC2CCCCC2)cc1Cl` [Example 81, 5-(benzenesulfonylcarbamoyl)-3-(2-chloro-4-((cyclohexylmethyl)oxy)benzyl)-2-methyl-3H-imidazo[4,5-b]pyridine], the melting point was in the range of 122 to 125 °C.

`Cc1nc2ccc(C(=O)NS(=O)(=O)c3ccccc3)nc2n1Cc1ccc(OCCN(C)c2ccccn2)cc1Cl` [Example 82, 5-(benzenesulfonylcarbamoyl)-3-(2-chloro-4-((2-(N-methyl-N-(2-pyridinyl)amino)ethyl)oxy)benzyl)-2-methyl-3H-imidazo[4,5-b]pyridine]: the melting point lay in the range of 104 to 105 °C. As for `CSc1ccc(Cn2c(C)nc3ccc(C(=O)NS(=O)(=O)c4ccccc4)nc32)c(Cl)c1` [Example 83, 5-(benzenesulfonylcarbamoyl)-3-(2-chloro-4-(methylthio)benzyl)-2-methyl-3H-imidazo[4,5-b]pyridine], the melting point lay in the range of 165 to 166 °C.

Broadly, the melting point is the temperature, or range, at which the solid turns liquid.
